Source: patent US11524966B1 (Valo Early Discovery, Inc., priority 2017, dated 2022)

Target: T1, USP28 (USP28-5(1-1077)-TEV-6*His; LifeSensors) (Homo sapiens, UniProt Q96RU2)
T1 construct: construct USP28 (USP28-5(1-1077)-TEV-6*His; LifeSensors); TEV cleavage site (C); 6xHis (C); purchased LifeSensors
T1 sequence (Q96RU2 1-1077): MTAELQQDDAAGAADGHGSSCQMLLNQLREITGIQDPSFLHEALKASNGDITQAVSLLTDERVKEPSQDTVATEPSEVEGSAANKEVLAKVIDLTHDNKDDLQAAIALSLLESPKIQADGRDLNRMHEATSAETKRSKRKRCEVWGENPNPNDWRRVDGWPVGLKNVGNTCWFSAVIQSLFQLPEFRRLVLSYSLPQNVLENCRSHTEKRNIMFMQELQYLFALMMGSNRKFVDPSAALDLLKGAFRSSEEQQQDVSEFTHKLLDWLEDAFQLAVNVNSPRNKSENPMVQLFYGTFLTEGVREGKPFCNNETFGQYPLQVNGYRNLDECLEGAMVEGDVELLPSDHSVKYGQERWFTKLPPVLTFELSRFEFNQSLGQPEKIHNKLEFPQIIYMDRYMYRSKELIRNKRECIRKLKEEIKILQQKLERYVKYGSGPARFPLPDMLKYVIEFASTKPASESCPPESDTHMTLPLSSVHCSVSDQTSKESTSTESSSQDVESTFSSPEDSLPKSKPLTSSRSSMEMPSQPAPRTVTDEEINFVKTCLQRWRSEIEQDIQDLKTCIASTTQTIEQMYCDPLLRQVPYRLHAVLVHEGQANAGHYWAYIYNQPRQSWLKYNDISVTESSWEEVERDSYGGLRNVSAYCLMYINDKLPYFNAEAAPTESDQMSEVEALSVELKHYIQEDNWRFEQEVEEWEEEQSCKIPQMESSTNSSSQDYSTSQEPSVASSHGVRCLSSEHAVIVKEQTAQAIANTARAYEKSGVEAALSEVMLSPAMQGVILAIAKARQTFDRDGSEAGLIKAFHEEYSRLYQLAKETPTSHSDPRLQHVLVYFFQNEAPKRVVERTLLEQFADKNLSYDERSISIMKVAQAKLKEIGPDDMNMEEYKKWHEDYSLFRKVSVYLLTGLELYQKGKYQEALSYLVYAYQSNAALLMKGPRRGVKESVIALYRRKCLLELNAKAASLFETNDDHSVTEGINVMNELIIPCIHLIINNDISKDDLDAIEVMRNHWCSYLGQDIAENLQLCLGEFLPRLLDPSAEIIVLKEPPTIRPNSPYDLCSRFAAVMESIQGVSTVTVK
Assay: Ubiquitin-Rhodamine 110 Assay for USP28 Activity, Example A-1(b)
Format: biochemical
Settings: Ubiquitin-Rhodamine 110 assay, Example A-1(b)
Procedure, shortened: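 Single-point screening used 10 μM compound with 90 min room-temperature incubation; follow-up dose-responses (25 μM top, 3-fold) used 75 pM USP28 1-1077 construct, 30 min compound preincubation, 25 nM Ub-Rh110, 20 min reaction, citric acid quench. Rh110 fluorescence normalised to no-enzyme and DMSO controls; IC50 from 4-parameter logistic fit.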

SMILES	USP28 A-1(b) IC50 range
CC(=O)Nc1cccc(CNc2ccc(C(=O)N[C@H]3COc4cc(N5CCNCC5)ccc4C3)cn2)c1 [Example 473, (R)-6-((3-acetamidobenzyl)amino)-N-(7-(piperazin-1-yl)chroman-3-yl)nicotinamide]	+ (>2 μM)
Cc1ccc2c(N)c(C(=O)N[C@H]3CCc4nc(N5C[C@@H](N)[C@H](C(F)(F)F)C5)ccc4C3)sc2n1 [Example 364, 3-amino-N-[(6S)-2-[(3S,4R)-3-amino-4-(trifluoromethyl)pyrrolidin-1-yl]-5,6,7,8-tetrahydroquinolin-6-yl]-6-methylthieno[2,3-b]pyridine-2-carboxamide]	+ (>2 μM)
Cc1cnc2c(N)c(C(=O)N[C@H]3CCc4cc(N5CC6CNCC(C5)O6)ccc4C3)sc2n1 [Example 448, N-((2S)-6-(9-oxa-3,7-diazabicyclo[3.3.1]nonan-3-yl)-1,2,3,4-tetrahydronaphthalen-2-yl)-7-amino-3-methylthieno[2,3-b]pyrazine-6-carboxamide]	++ (0.2-2 μM)
Cc1ccc2c(N)c(C(=O)N[C@H]3COc4cc(N5CCC(F)(F)CC5)ccc4C3)sc2n1 [Example 5-1, (R)-3-amino-N-(7-(4,4-difluoropiperidin-1-yl)chroman-3-yl)-6-methylthieno[2,3-b]pyridine-2-carboxamide]	++++ (0.001-0.05 μM)
Cc1cnc2c(N)c(C(=O)N[C@H]3CCc4cc(N5CCCNCC5)ccc4C3)sc2n1 [Example 455, (S)-N-(6-(1,4-diazepan-1-yl)-1,2,3,4-tetrahydronaphthalen-2-yl)-7-amino-3-methylthieno[2,3-b]pyrazine-6-carboxamide]	++ (0.2-2 μM)
Cc1ccc2c(N)c(C(=O)N[C@H]3COc4cc(N5CC[C@]6(CCCNC6)C5)ccc4C3)sc2n1 [Example 3-13, N-((R)-7-((S)-2,7-diazaspiro[4.5]decan-2-yl)chroman-3-yl)-3-amino-6-methylthieno[2,3-b]pyridine-2-carboxamide]	+++ (0.05-0.2 μM)
Cc1ccc2c(N)c(C(=O)N[C@H]3COc4cc(N5CC(O)(C(F)(F)F)C5)ccc4C3)sc2n1 [Example 5-3, (R)-3-amino-N-(7-(3-hydroxy-3-(trifluoromethyl)azetidin-1-yl)chroman-3-yl)-6-methylthieno[2,3-b]pyridine-2-carboxamide]	+++ (0.05-0.2 μM)
Cc1ccc2c(N)c(C(=O)N[C@H]3COc4cc(N5C[C@H](N)[C@@H](F)C5)ccc4C3)sc2n1 [Example 3-7, 3-amino-N-((R)-7-((3S,4S)-3-amino-4-fluoropyrrolidin-1-yl)chroman-3-yl)-6-methylthieno[2,3-b]pyridine-2-carboxamide]	++ (0.2-2 μM)
COC[C@@H]1CN(c2ccc3c(n2)OC[C@H](NC(=O)c2sc4nc(C)cc(C)c4c2N)C3)C[C@@H]1N [Example 348, 3-amino-N-[(3R)-7-[(3R,4R)-3-amino-4-(methoxymethyl)pyrrolidin-1-yl]-2H,3H,4H-pyrano[2,3-b]pyridin-3-yl]-4,6-dimethylthieno[2,3-b]pyridine-2-carboxamide]	+ (>2 μM)
Cc1cc(C)n2ncc(C(=O)N[C@H]3COc4cc(N5CCNCC5)ccc4C3)c2n1 [Example 463, (R)-5,7-dimethyl-N-(7-(piperazin-1-yl)chroman-3-yl)pyrazolo[1,5-a]pyrimidine-3-carboxamide]	+ (>2 μM)
CC(=O)N1CCCc2cc(C(=O)N[C@H]3COc4cc(N5CCNCC5)ccc4C3)ccc21 [Example 459, (R)-1-acetyl-N-(7-(piperazin-1-yl)chroman-3-yl)-1,2,3,4-tetrahydroquinoline-6-carboxamide]	+ (>2 μM)
Cc1ccc2c(N)c(C(=O)N[C@H]3COc4cc(N5CCC(C(=O)O)CC5)ccc4C3)sc2n1 [Example 6-1, (R)-1-(3-(3-Amino-6-methylthieno[2,3-b]pyridine-2-carboxamido)chroman-7-yl)piperidine-4-carboxylic Acid]	++ (0.2-2 μM)
Cc1cnc2c(N)c(C(=O)N[C@H]3CCc4cc(N5CC(C(=O)O)C5)ccc4C3)sc2n1 [Example 6-4, (S)-1-(6-(7-amino-3-methylthieno[2,3-b]pyrazine-6-carboxamido)-5,6,7,8-tetrahydronaphthalen-2-yl)azetidine-3-carboxylic acid]	+ (>2 μM)
O=C(N[C@H]1COc2cc(N3CCNCC3)ccc2C1)c1ccc(NCc2cccc(C(F)(F)F)c2)nc1 [Example 469, (R)-N-(7-(piperazin-1-yl)chroman-3-yl)-6-((3-(trifluoromethyl)benzyl)amino)nicotinamide]	++ (0.2-2 μM)
O=C(N[C@H]1COc2cc(N3CCNCC3)ccc2C1)c1ccc(NCc2cccnc2)nc1 [Example 468, (R)-N-(7-(piperazin-1-yl)chroman-3-yl)-6-((pyridin-3-ylmethyl)amino)nicotinamide]	+ (>2 μM)
O=C(N[C@H]1COc2cc(N3CCNCC3)ccc2C1)c1ccc(NCc2cccc(Cl)c2)nc1 [Example 467, (R)-6-((3-chlorobenzyl)amino)-N-(7-(piperazin-1-yl)chroman-3-yl)nicotinamide]	++ (0.2-2 μM)
Cc1cnc2c(N)c(C(=O)N[C@@H]3CCc4cc(N5CC6CNCC(C5)O6)ccc4C3)sc2n1 [Example 450, N-((2R)-6-(9-oxa-3,7-diazabicyclo[3.3.1]nonan-3-yl)-1,2,3,4-tetrahydronaphthalen-2-yl)-7-amino-3-methylthieno[2,3-b]pyrazine-6-carboxamide]	+ (>2 μM)
Cc1cnc2c(N)c(C(=O)N[C@H]3CCc4cc(N5CC6COCC(C5)N6)ccc4C3)sc2n1 [Example 456, N-((2S)-6-(3-oxa-7,9-diazabicyclo[3.3.1]nonan-7-yl)-1,2,3,4-tetrahydronaphthalen-2-yl)-7-amino-3-methylthieno[2,3-b]pyrazine-6-carboxamide]	++ (0.2-2 μM)
O=C(N[C@H]1COc2cc(N3CCNCC3)ccc2C1)c1ccc(NCc2ccc3c(c2)OCCO3)nc1 [Example 471, (R)-6-(((2,3-dihydrobenzo[b][1,4]dioxin-6-yl)methyl)amino)-N-(7-(piperazin-1-yl)chroman-3-yl)nicotinamide]	+ (>2 μM)
Cc1cnc2c(N)c(C(=O)N[C@@H]3CCc4cc(N5CCCNCC5)ccc4C3)sc2n1 [Example 452, (R)-N-(6-(1,4-diazepan-1-yl)-1,2,3,4-tetrahydronaphthalen-2-yl)-7-amino-3-methylthieno[2,3-b]pyrazine-6-carboxamide]	+ (>2 μM)
O=C(N[C@H]1COc2cc(N3CCNCC3)ccc2C1)c1cnn2cc(Cl)ccc12 [Example 462, (R)-6-chloro-N-(7-(piperazin-1-yl)chroman-3-yl)pyrazolo[1,5-a]pyridine-3-carboxamide]	+ (>2 μM)
Cc1ccc2c(N)c(C(=O)N[C@H]3COc4cc(N5CCN[C@H](C(F)(F)F)C5)ccc4C3)sc2n1 [Example 3-12, 3-amino-6-methyl-N-((R)-7-((S)-3-(trifluoromethyl)piperazin-1-yl)chroman-3-yl)thieno[2,3-b]pyridine-2-carboxamide]	++ (0.2-2 μM)
Cc1ccc2c(N)c(C(=O)N[C@H]3COc4cc(N5CC[C@@]6(CCCNC6)C5)ccc4C3)sc2n1 [Example 3-14, N-((R)-7-((R)-2,7-diazaspiro[4.5]decan-2-yl)chroman-3-yl)-3-amino-6-methylthieno[2,3-b]pyridine-2-carboxamide]	+++ (0.05-0.2 μM)
Cc1ccc2c(N)c(C(=O)N[C@H]3COc4cc(N5CC[C@@H](C(=O)O)C5)ccc4C3)sc2n1 [Example 6-2, (R)-1-((R)-3-(3-amino-6-methylthieno[2,3-b]pyridine-2-carboxamido)chroman-7-yl)pyrrolidine-3-carboxylic acid]	++ (0.2-2 μM)
Cc1ccc2c(N)c(C(=O)N[C@H]3COc4cc(N5CCS(=O)(=O)CC5)ccc4C3)sc2n1 [Example 5-2, (R)-3-amino-N-(7-(1,1-dioxidothiomorpholino)chroman-3-yl)-6-methylthieno[2,3-b]pyridine-2-carboxamide]	+++ (0.05-0.2 μM)
